Results reported in patent US4395413A, “Oxime ethers and pharmaceutical compositions containing the same” (Egyt Gyogyszervegyeszeti Gyar, priority 1979, dated 1983).
Like-named read-outs stand apart in the source and are kept apart here.

Key:
[1] = analgesic effect on mice (method of Koster); type: in vivo; conditions: for ED50: Mus musculus, po; for Therapeutic index: p.o.
Description:  The analgesic effect was determined on mice by the method of Koster, R.
Anderson, M., De Beer, E. J., Fred.

[2] = acute toxicity on white mice (strain CFLP); conditions: mouse, in vivo, 4 days observation
Description: The acut toxicity of the new compounds according to the invention was determined on white mice of both sexes weighing 18-24 g belonging to the strain CFLP. Administration was effected with an oral or intraperitoneal dosage of 20 ml/kg. After treatment the animals were kept under observation for 4 days.

[3] = system: ischiadic nerve of rats; test: local anaesthetic effect on the ischiadic nerve of rats (method of Truant and d'Amato); type: in vivo; conditions: for Duration 0.25% / EC50: rats, ischiadic nerve; for Duration 0.25%: 0.25% concentration; for EC50: local anaesthesia; for Relative efficiency: referred to Lidocaine
Description: The local anaesthetic effect was investigated on the ischiadic nerve of rats by means of the method of Truant and d'Amato /Truant, A. P. and Wiedling, S.: Acta Chirurg. Scand. 116, 351 /1958//. Lidocaine served as reference substance.
In Table III. below, the relative efficiency referred to Lidocaine and the duration of the effect on application of 0.25% concentrations of Lidocaine are given.

[4] = system: isoproterenol; test: isoproterenol antagonistic (beta-receptor blocking) effect; type: in vivo, cats
[5] = blood pressure of waking rats of normal tension, oral; type: in vivo; conditions: orally, 100 mg/kg
Description: (§1) The hypotensive effect of the new compounds was tested on anaesthesized cats. The compound of Example 7, administered in doses of 3 and 5 mg/kg, results in a prolonged decrease of blood pressure of 40 Hgmm. […] This compound, orally tested on waking rats of normal tension in a dosage of 100 mg/kg, results in a decrease of blood pressure of 13 Hgmm.

[6] = system: nicotine-lethality; test: inhibition of nicotine-lethality on mice (method of Stone); type: in vivo; conditions: for ED50: Mus musculus, po, read-out: ED50 /p.o./; for Therapeutic index: nicotine-lethality inhibition
Description: The inhibition of nicotine-lethality was determined on mice by the method of Stone /Stone, C. A. et al.: Arch. Intern.

[7] = system: noradrenaline; test: noradrenaline antagonistic (alpha-receptor blocking) effect; type: in vivo, cats
[8] = system: orthostatic hypotension; test: influence on the orthostatic hypotension; type: in vivo; conditions: qualitative
[9] = hypotensive effect on anaesthesized cats; type: in vivo; conditions: doses of 3 and 5 mg/kg
Description: as §1

[10] = system: carotid occlusion reflex; test: effect on the carotid occlusion reflex; type: in vivo, cats; conditions: qualitative
Description: as §1

[11] = po, per os, read-out: LD50 per os.

Structure (SMILES)	ED50 [1] [mg/kg]	LD50 at 96 h ([2]; ip, read-out: LD50 i.p.) [mg/kg]	LD50 at 96 h [2, 11] [mg/kg]	Therapeutic index [1]	ED50 ([6]; mice, p.o., nicotine-lethality) [mg/kg]	Therapeutic index ([6]; mice, p.o.)	other results
CCCCC1CCCCC1=NOCCN(C)C (stereo not shown) [Example 1, 2-n-butyl-1-/2'-dimethylaminoethoxyimino/-cyclohexane]	320	135	580	–	–	–	–
CCCCC1CCCCC1=NOCCCN(C)C (stereo not shown) [Example 3, 2-n-butyl-1-/3'-dimethylaminopropoxyimino/-cyclohexane]	45	100	430	9	–	–	–
CCCCC1CCCCC1=NOCC(C)CN(C)C (stereo not shown) [Example 4, 2-n-butyl-1-/2'-methyl-3'-dimethylaminopropoxyimino/-cyclohexane]	–	110	400	–	–	–	Duration 0.25% [3]: 31 min; EC50 [3]: 0.15 % conc.; Relative efficiency [3]: 1.13
CCCCC1CCCCC1=NOCCCN1CCN(Cc2ccccc2)CC1 (stereo not shown) [Example 5, 2-n-butyl-1-[3'-/4"-benzylpiperazinyl/-propoxyimino]-cyclohexane]	250	240	1300	5.2	–	–	–
CCCC=C1CCCCC1=NOCCCN1CCN(C)CC1 [Example 7, 2-butylidene-1-[3'-/4"-methylpiperazinyl/-propoxyimino]-cyclohexane]	–	330	1600	–	155	10.0	ED50 ([4]; Felis catus, iv, read-out: isoproterenol antagonistic i.v. ED50): 2.5 mg/kg; beta-receptor blocking effect ([4]; qualitative): alpha- and beta-receptor blocking effect; decrease of blood pressure [5]: 13 Hgmm; ED50 ([7]; Felis catus, iv, read-out: noradrenaline antagonistic i.v. ED50): 2.3 mg/kg; alpha-receptor blocking effect ([7]; qualitative): alpha- and beta-receptor blocking effect; influence on the orthostatic hypotension [8]: no influence on the orthostatic hypotension; prolonged decrease of blood pressure [9]: 40 Hgmm; effect on the carotid occlusion reflex [10]: decreases the effect on the carotid occlusion reflex
CCCC=C1CCCCC1=NOCCCN1CCN(Cc2ccccc2)CC1 [Example 8, 2-butylidene-[3'-/4"-benzylpiperazinyl/-propoxyimino]-cyclohexane]	290	230	1450	5	–	–	–
CCCCC=C1CCCCC1=NOCCCN1CCN(C)CC1 [Example 9, 2-pentylidene-1-[3'-/4"-methylpiperazinyl/-propoxyimino]-cyclohexane]	500	200	3000	6	150	20.0	Duration 0.25% [3]: 64 min; EC50 [3]: 0.25 % conc.; Relative efficiency [3]: 0.76
CCCCC=C1CCCCC1=NOCCCN1CCN(Cc2ccccc2)CC1 [Example 10, 2-pentylidene-1-[3'-/4"-benzylpiperazinyl/-propoxyimino]-cyclohexane]	140	160	1800	13.0	–	–	–
C=CCC1CCCCC1=NOCCCN1CCN(C)CC1 (stereo not shown) [Example 14, 2-allyl-[3'-/4"-methylpiperazinyl/-propoxyimino]-cyclohexane]	–	310	1600	–	70	22.0	–
CCCCCC=C1CCCCC1=NOCCCN1CCN(C)CC1 [Example 15, 2-hexylidene-1-[3'-/4"-methylpiperazinyl/propoxyimino]-cyclohexane]	–	200	3000	–	190	16.0	–
CCCCCCCC=C1CCCCC1=NOCCCN1CCN(C)CC1 [Example 16, 2-octylidene-1-[3'-/4"-methylpiperazinyl/propoxyimino]-cyclohexane]	200	270	3000	15.0	–	17.6	ED50 [6]: 150 mg/kg
CCN(CC)CC(=O)Nc1c(C)cccc1C [Lidocaine, reference compound]	–	–	–	–	–	–	Duration 0.25% [3]: 24 min; EC50 [3]: 0.19 % conc.; Relative efficiency [3]: 1.00
OC(CCN1CCCCC1)(c1ccccc1)C1CCCCC1 (stereo not shown) [Trihexyphenidyl, reference compound]	–	–	–	–	40	9.13	–
